Data: ChEMBL document CHEMBL4190382, “Targeting lysine specific demethylase 4A (KDM4A) tandem TUDOR domain - A fragment based approach” (Bioorg Med Chem Lett, 2018)
The source made the active and inactive calls. The rule behind the calls is not given here.

Legend:
[1] = tested on: T1, Lysine-specific demethylase 4A (Homo sapiens), O75164 [Y973A]; test: Binding affinity to thrombin cleavable N-terminal 6His tagged and 13C-IVLM labeled human KDM4A tandem TUDOR domain (897 to 1011 residues) Y973A mutant expressed in Escherichia coli BL21(DE3)-T1R by ITC method
T1 sequence (whole entry): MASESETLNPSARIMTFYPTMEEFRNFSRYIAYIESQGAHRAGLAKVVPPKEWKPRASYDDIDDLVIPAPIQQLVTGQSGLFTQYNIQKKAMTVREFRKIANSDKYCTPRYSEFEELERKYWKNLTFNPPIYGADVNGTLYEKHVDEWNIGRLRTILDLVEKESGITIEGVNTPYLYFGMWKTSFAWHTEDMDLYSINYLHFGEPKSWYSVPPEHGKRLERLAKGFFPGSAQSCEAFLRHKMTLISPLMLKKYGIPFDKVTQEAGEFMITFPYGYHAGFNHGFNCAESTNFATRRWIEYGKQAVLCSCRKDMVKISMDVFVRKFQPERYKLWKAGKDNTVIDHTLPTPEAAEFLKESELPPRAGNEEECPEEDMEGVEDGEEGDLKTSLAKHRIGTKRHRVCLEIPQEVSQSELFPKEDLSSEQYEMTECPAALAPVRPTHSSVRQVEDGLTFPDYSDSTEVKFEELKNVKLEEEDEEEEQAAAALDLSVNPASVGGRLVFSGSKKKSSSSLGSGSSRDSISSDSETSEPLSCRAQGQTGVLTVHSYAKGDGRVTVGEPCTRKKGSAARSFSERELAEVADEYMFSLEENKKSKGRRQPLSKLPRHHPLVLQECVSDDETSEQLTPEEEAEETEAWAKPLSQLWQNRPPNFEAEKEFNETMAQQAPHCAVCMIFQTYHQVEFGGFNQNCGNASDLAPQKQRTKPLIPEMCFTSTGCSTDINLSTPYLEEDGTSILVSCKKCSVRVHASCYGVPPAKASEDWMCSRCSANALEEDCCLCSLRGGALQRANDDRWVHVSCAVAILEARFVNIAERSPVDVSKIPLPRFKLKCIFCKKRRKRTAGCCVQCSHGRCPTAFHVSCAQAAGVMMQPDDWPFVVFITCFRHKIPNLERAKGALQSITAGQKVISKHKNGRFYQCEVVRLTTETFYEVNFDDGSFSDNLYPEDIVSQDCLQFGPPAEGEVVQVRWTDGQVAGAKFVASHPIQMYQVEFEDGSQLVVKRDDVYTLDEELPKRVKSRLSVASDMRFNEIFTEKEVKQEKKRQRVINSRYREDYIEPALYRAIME

[2] = target: T2, Lysine-specific demethylase 4B (Homo sapiens, UniProt O94953); test: Binding affinity to 6His-tagged and human KDM4B tandem TUDOR domain (916 to 1030 residues) expressed in Escherichia coli BL21(DE3)-T1R by ITC method
T2 sequence (O94953 whole entry): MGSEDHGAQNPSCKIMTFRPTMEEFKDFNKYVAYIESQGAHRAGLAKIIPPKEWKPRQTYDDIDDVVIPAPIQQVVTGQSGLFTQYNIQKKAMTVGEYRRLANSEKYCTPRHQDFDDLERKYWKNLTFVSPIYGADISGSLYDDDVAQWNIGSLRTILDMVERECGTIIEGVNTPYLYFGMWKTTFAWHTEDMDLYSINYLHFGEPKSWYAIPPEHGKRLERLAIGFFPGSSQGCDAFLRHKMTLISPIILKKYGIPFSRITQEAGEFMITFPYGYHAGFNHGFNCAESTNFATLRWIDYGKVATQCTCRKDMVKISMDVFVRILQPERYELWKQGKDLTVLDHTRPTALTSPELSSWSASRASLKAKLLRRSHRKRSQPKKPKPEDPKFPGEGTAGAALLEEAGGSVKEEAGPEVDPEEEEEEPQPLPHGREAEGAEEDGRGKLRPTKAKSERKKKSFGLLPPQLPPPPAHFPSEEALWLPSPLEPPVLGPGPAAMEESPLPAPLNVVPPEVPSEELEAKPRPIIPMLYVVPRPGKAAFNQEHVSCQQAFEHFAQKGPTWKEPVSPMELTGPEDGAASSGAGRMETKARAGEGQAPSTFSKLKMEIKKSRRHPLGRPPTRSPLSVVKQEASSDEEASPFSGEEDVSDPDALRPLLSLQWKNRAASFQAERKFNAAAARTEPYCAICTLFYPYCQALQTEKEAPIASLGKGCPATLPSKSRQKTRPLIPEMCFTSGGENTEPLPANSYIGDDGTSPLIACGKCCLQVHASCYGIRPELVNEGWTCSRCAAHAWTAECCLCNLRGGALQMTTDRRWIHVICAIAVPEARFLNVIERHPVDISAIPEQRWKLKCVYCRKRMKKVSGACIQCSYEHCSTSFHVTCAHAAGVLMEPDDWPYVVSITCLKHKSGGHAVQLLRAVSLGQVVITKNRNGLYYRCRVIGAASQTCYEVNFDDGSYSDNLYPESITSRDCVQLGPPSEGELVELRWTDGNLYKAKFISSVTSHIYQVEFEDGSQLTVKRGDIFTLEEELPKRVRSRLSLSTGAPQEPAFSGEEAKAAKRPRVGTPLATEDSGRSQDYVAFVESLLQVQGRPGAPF

Activity [1]: inactive
Kd [2]: 127 µM
SMILES: CN(C)C[C@H]1C2CCC(c3ccccc3)(C2)[C@H]1O (some centres not stated)
